# Reference: paper PMC7014401
# Tests used:
# [1] = On-DNA RCM (terminal diene to cyclic alkene), catalyst B (Grubbs-III 2,2'-biphenyldiamine derivative, 10 eq), MgCl2 20000 eq, NH4Cl 12000 eq; conditions: H2O:EtOH:MeOAc 5:4:1, 0.02 mM, 25.0 °C, 0.5 h
# [2] = On-DNA RCM, Grubbs III catalyst A (150 eq), MgCl2 8000 eq (Lu et al. conditions, heterogeneous, rerun here); conditions: H2O:tBuOH 3:2, 0.09 mM, 25.0 °C, 1.0 h
# [3] = On-DNA RCM, Grubbs III catalyst A (10 eq) + 2,2'-biphenyldiamine C (20 eq), MgCl2 20000 eq, NH4Cl 12000 eq (Alternative #2); conditions: H2O:EtOH:MeOAc 5:4:1, 0.02 mM, 25.0 °C, 0.5 h
# [4] = On-DNA RCM, Grubbs III catalyst A (10 eq), MgCl2 20000 eq, NH4Cl 12000 eq (Alternative #1); conditions: H2O:EtOH:MeOAc 5:4:1, 0.02 mM, 25.0 °C, 0.5 h
# [5] = from C=CCCC[C@](C)(NC(=O)[C@H](CCCNC(=N)N)NC(=O)[C@H](Cc1c[nH]cn1)NC(=O)[C@H](CC(C)C)NC(=O)[C@](C)(CCCC=C)NC(=O)[C@H](CCCCN)NC(=O)[C@H](CCCNC(=N)N)NC(=O)[C@H](CCCNC(=N)N)NC(=O)[C@H](CCCNC(=N)N)NC(=O)[C@H](CCCNC(=N)N)NC(C)=O)C(=O)N[C@@H](CC(C)C)C(=O)N[C@@H](CCC(N)=O)C(=O)N[C@@H](CC(=O)O)C(=O)N[C@@H](CCc1cn(CC(=O)NC)nn1)C(N)=O, 21-membered ring
# [6] = from C=CCCCC(=O)NCCCC[C@@H](NC(=O)COCCOCCNC(=O)CCCC=C)C(=O)NC, 26-membered ring
# [7] = from C=CCCCC(=O)N(CC=C)CC(=O)NC, 8-membered ring
# [8] = from C=CCCCC(=O)NCCCC[C@H](NC(=O)CCCC=C)C(=O)NC, 17-membered ring
smiles,measurement,setting,value
CNC(=O)CCOCCOCCOCCOCCn1cc(CC[C@H](NC(=O)[C@H](CC(=O)O)NC(=O)[C@H](CCC(N)=O)NC(=O)[C@H](CC(C)C)NC(=O)[C@]2(C)CCCC=CCCC[C@](C)(NC(=O)[C@H](CCCCN)NC(=O)[C@H](CCCNC(=N)N)NC(=O)[C@H](CCCNC(=N)N)NC(=O)[C@H](CCCNC(=N)N)NC(=O)[C@H](CCCNC(=N)N)NC(C)=O)C(=O)N[C@@H](CC(C)C)C(=O)N[C@@H](Cc3c[nH]cn3)C(=O)N[C@@H](CCCNC(=N)N)C(=O)N2)C(N)=O)nn1,"ring closure, conversion by HPLC (% conversion (LC/MS deconvolution))","[1]; from C=CCCC[C@](C)(NC(=O)[C@H](CCCNC(=N)N)NC(=O)[C@H](Cc1c[nH]cn1)NC(=O)[C@H](CC(C)C)NC(=O)[C@](C)(CCCC=C)NC(=O)[C@H](CCCCN)NC(=O)[C@H](CCCNC(=N)N)NC(=O)[C@H](CCCNC(=N)N)NC(=O)[C@H](CCCNC(=N)N)NC(=O)[C@H](CCCNC(=N)N)NC(C)=O)C(=O)N[C@@H](CC(C)C)C(=O)N[C@@H](CCC(N)=O)C(=O)N[C@@H](CC(=O)O)C(=O)N[C@@H](CCc1cn(CCOCCOCCOCCOCCC(=O)NC)nn1)C(N)=O, 21-membered ring",65
CNC(=O)Cn1cc(CC[C@H](NC(=O)[C@H](CC(=O)O)NC(=O)[C@H](CCC(N)=O)NC(=O)[C@H](CC(C)C)NC(=O)[C@]2(C)CCCC=CCCC[C@](C)(NC(=O)[C@H](CCCCN)NC(=O)[C@H](CCCNC(=N)N)NC(=O)[C@H](CCCNC(=N)N)NC(=O)[C@H](CCCNC(=N)N)NC(=O)[C@H](CCCNC(=N)N)NC(C)=O)C(=O)N[C@@H](CC(C)C)C(=O)N[C@@H](Cc3c[nH]cn3)C(=O)N[C@@H](CCCNC(=N)N)C(=O)N2)C(N)=O)nn1,"ring closure, conversion by HPLC (% conversion (LC/MS deconvolution))",[2]; [5],22
same,"ring closure, conversion by HPLC (% conversion (LC/MS deconvolution))",[1]; [5],52
CNC(=O)[C@@H]1CCCCNC(=O)CCCC=CCC(=O)N[C@H](c2cccnc2)CC(=O)N1,"ring closure, conversion by HPLC (% conversion (LC/MS deconvolution))","[2]; from C=CCCCC(=O)NCCCC[C@H](NC(=O)C[C@H](NC(=O)CC=C)c1cccnc1)C(=O)NC, 19-membered ring",0
CNC(=O)[C@H]1CCCCNC(=O)CCCC=CCCCC(=O)NCCOCCOCC(=O)N1,"ring closure, conversion by HPLC (% conversion (LC/MS deconvolution))",[2]; [6],23
same,"ring closure, conversion by HPLC (% conversion (LC/MS deconvolution))",[3]; [6],61
same,"ring closure, conversion by HPLC (% conversion (LC/MS deconvolution))",[4]; [6],58
same,"ring closure, conversion by HPLC (% conversion (LC/MS deconvolution))",[1]; [6],70
CNC(=O)CN1CC=CCCCC1=O [5-hexenoyl-(N-allyl)Gly-NH-DNA],"ring closure, conversion by HPLC (% conversion (LC/MS deconvolution))",[2]; [7],65
same,"ring closure, conversion by HPLC (% conversion (LC/MS deconvolution))",[3]; [7],73
same,"ring closure, conversion by HPLC (% conversion (LC/MS deconvolution))",[4]; [7],33
same,"ring closure, conversion by HPLC (% conversion (LC/MS deconvolution))",[1]; [7],62
CNC(=O)[C@@H]1CCCCNC(=O)CCCC=CCCCC(=O)N1 [5-hexenoyl-Lys(5-hexenoyl)-NH-DNA (56-bp dsDNA)],"ring closure, conversion by HPLC (% conversion (LC/MS deconvolution))",[1]; [8],69
CNC(=O)[C@@H]1CCCCNC(=O)CCCC=CCCCC(=O)N1 [5-hexenoyl-Lys(5-hexenoyl)-NH-DNA],"ring closure, conversion by HPLC (% conversion (LC/MS deconvolution))",[2]; [8],70
same,"ring closure, conversion by HPLC (% conversion (LC/MS deconvolution))",[3]; [8],75
same,"ring closure, conversion by HPLC (% conversion (LC/MS deconvolution))",[4]; [8],72
same,"ring closure, conversion by HPLC (% conversion (LC/MS deconvolution))",[1]; [8],78
